Laboratory results: publication PMC6272797, “Antitrypanosomal Acetylene Fatty Acid Derivatives from the Seeds of Porcelia macrocarpa (Annonaceae)” (Molecules, 2015)
Where two headings read alike, the source gives them in different places.

Assays:
[1] = test system: T. cruzi trypomastigotes (Y strain); assay: Activity against T. cruzi trypomastigotes (MTT viability assay); type: cell-based, Trypanosoma cruzi; details: for IC50: Trypanosoma cruzi, free trypomastigotes, read-out: IC50 T. cruzi trypomastigote; for IC50 / antitrypanosomal activity against T. cruzi trypomastigotes (in words): MTT; for antitrypanosomal activity against T. cruzi trypomastigotes (in words): in vitro; for SI (selectivity index): CC50 NCTC cells/IC50 trypomastigotes
Method: T. cruzi trypomastigotes (Y strain) were maintained in LLC-MK2 (ATCC CCL 7) cells using RPMI-1640 medium supplemented with 2% FBS at 37 °C and 5% CO2-humidified incubator [34].
Free trypomastigotes obtained from LLC-MK2 cultures were counted in a Neubauer hemocytometer and seeded at 1 × 10^6/well in 96-well microplates. Tested compounds were incubated to the highest concentration of 300 μg/mL for 24 h at 37 °C in a 5% CO2 humidified incubator; using benznidazole as standard drug. The viability of the trypomastigotes was verified by the MTT assay as previously described.
The data obtained represent the mean and standard deviation of duplicate samples from three independent assays. The IC50 and CC50 values were calculated using sigmoid dose-response curves in Graph Pad Prism 5.0 software (GraphPad Software, San Diego, CA, USA), and the 95% confidence intervals are included in parentheses.

[2] = Cytotoxicity against mammalian cells (MTT assay); type: cell-based; details: mouse, NCTC clone 929 cells
Method: The 50% cytotoxic concentration (CC50) was determined in NCTC clone 929 cells. NCTC cells were seeded at 6 × 10^4 cells/well in 96-well microplates at 37 °C in a 5% CO2. […] The viability of the cells was determined by MTT assay at 570 nm. The Selectivity Index (SI) was determined considering the following equation: CC50 NCTC cells/IC50 trypomastigotes. […] The data obtained represent the mean and standard deviation of duplicate samples from three independent assays. The IC50 and CC50 values were calculated using sigmoid dose-response curves in Graph Pad Prism 5.0 software (GraphPad Software, San Diego, CA, USA), and the 95% confidence intervals are included in parentheses.

[3] = 24 h, 24 h, highest concentration 300 µg/mL, CI95% in parentheses
[4] = highest concentration 100 µg/mL, CI95% in parentheses

Structure (SMILES)	IC50 [1, 3] [µg/mL]	antitrypanosomal activity against T. cruzi trypomastigotes (in words) [1]	CC50 at 48 h [2] [µM]	CC50 at 48 h [2, 4] [µg/mL]	SI (selectivity index) [1]	IC50 ([1]; 24 h, 24 h) [µM]	trypomastigote forms of T. cruzi killed ([1]; at the highest tested concentration (300 µg/mL), 24 h) [%]	effectiveness relative to the standard drug benznidazole ([1]; comparison of IC50 against trypomastigotes)
CCCC#CC#CCCCCCCCCCCC(=O)OCC(O)COC(=O)CCCCCCC/C=C\CCCCCCCC (stereo not drawn) [Compound 3, α-macrocarpoyl-α'-oleylglycerol]	> 300	inactive						
CCCC#CC#CCCCCCCCCCCC(=O)OCC(COC(=O)CCCCCCCCCCC#CC#CCCC)OC(=O)CCCCCCC/C=C\CCCCCCCC [Compound 2, α,α'-dimacrocarpoyl-β-oleylglycerol]	> 300	inactive						
CCCCCCCCCCCCCCCCCC(=O)O [Compound 1a, octadecanoic acid]	> 300							
O=C(Cn1ccnc1[N+](=O)[O-])NCc1ccccc1 [Benznidazole, benznidazole, reference compound]	139		484	126	0.9	534		
CCCC#CC#CCCCCCCCCCCC(=O)O [Compound 1, 12,14-octadecadiynoic acid]	10.7	displayed in vitro activity	160	44.3	4.1	38.8	100	approximately ten times more effective
